From patent US20230365492A1, “LITHIUM ORGANIC ACID-AMINO ACID SALT, AND CRYSTAL FORM, COMPOSITION AND APPLICATION THEREOF” (ANYU BIOTECHNOLOGY (HANGZHOU) CO., LTD., priority 2020, published 2023)
“Also recorded” adds a separate entry of the source.

Experiments:
Notch protein = settings: SH-SY5Y cells, 3 hours, concentration of less than 50 mM, Western blot
Source text: GAPDH was used as an internal reference protein. A Notch protein is an important signaling molecule at the downstream of GSK-3, and plays an important positive role in regulating the proliferation and survival of cells.

HEK293 cells = settings: 5 mM, 4 hours, confocal microscope
GSK-3β [1] = target: GSK-3β (Cricetulus griseus, UniProt A0A061I155); settings: CHO cells, treated 2 hours, 0-50 mM (vs lithium isobutyrate) or 0-90 mM (vs lithium carbonate), Western blot, GAPDH reference
GSK-3β (Cricetulus griseus, UniProt A0A061I155), sequence (A0A061I155 1-428): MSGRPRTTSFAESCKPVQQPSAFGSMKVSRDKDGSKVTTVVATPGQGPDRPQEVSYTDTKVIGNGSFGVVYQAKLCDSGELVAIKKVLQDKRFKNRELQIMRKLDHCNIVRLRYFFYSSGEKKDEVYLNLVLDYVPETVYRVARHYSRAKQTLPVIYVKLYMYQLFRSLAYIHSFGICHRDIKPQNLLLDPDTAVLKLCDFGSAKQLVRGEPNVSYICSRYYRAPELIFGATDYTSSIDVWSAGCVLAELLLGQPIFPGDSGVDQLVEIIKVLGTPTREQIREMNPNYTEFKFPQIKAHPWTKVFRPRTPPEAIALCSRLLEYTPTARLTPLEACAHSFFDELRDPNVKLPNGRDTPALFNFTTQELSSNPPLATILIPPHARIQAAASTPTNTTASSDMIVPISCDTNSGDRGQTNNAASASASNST
Source text: The cells were continuously subjected to lysis by an RIPA buffer containing a protease inhibitor, followed by detection by Western blot with phosphorylated GSK-3β (Ser9) or a total GSK-3β antibody as an antibody.
GAPDH (glyceraldehyde-3-phosphate dehydrogenase) was used as an internal reference protein.

tau protein = settings: SH-SY5Y cells, 3 hours, Western blot
Source text: (§1) GAPDH was used as an internal reference protein.

GSK-3β [2] = target: GSK-3β (Mus musculus, UniProt Q9WV60); settings: APP/PS1 mice, gavage, 0.02 and 0.08 mmol/mouse, 4 hours after administration
GSK-3β (Mus musculus, UniProt Q9WV60), sequence (Q9WV60 whole entry): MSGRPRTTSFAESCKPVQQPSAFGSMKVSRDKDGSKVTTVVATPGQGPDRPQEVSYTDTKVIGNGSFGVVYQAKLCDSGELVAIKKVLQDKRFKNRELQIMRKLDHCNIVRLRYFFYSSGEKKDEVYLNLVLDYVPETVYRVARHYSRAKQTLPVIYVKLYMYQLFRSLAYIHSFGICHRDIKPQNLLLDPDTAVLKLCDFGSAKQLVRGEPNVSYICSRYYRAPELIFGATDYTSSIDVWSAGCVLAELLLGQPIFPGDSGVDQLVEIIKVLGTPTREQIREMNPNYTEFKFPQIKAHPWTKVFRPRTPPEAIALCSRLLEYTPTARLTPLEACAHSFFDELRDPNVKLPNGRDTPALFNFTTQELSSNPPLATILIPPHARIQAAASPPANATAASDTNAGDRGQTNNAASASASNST
Protocol: Brain tissues were extracted, and a homogenate of the brain tissues was prepared.

β-catenine = settings: CHO cells, 0-50 mM, 2 hours, Western blot
Source text: as §1

Protocol for Kunming mice: According to the Horn's method, 40 Kunming mice (with the weight of 19.8-22 g, including half male mice and half female mice) were divided into four groups at an equal ratio of 2.15, including a 464 mg/kg dose group, a 1,000 mg/kg dose group, a 2,150 mg/kg dose group and a 4,640 mg/kg dose group (each group was orally administrated at one time and includes 10 mice with half male mice and half female mice). […] 24 hours later, poisoning symptoms, occurrence time and death time of the experimental animals were observed every day for an observation period of 14 days. Dead animals and other animals sacrificed within 14 days were subjected to gross anatomy. When gross pathological changes were observed by naked eyes, pathological examination was performed.

| Molecule | symptoms of experimental animals (Kunming mice; oral, 464 mg/kg and 1,000 mg/kg dose groups) | symptoms and death of experimental animals (Kunming mice; oral, 2,150 mg/kg and 4,640 mg/kg dose groups, within 24 hours) | Notch protein expression (Notch protein) | change in morphology of HEK293 cells (HEK293 cells) | inhibition of the activity of GSK-3β (phosphorylated GSK-3β (Ser9) expression) (GSK-3β [1]) | concentration at which an effect on total tau protein expression is seen (tau protein) [mM] | effect on phosphorylated GSK-3β (Ser9) expression in brain tissues (GSK-3β [2]) | cell survival related protein (β-catenine) expression (β-catenine) | total tau protein expression (tau protein; 0-50 mM) |
| --- | --- | --- | --- | --- | --- | --- | --- | --- | --- |
| O=C([O-])[O-].[Li+].[Li+] [lithium carbonate, reference compound] | no abnormalities | abnormal posture symptoms within 24 hours and are all dead | obvious inhibition effect on the Notch protein expression | obvious change in morphology | obviously lower than that of the lithium isobutyrate-L-proline salt | 6.25 | – | – | – |
| lithium isobutyrate-L-proline salt | – | – | no influence on the Notch expression | – | significantly decreased phosphorylated GSK-3β (Ser9) expression in a dose-dependent manner; also recorded: dose-dependent inhibition effect on the GSK-3β, and the inhibition effect is stable | 3.125 | significantly better than that of the lithium carbonate | significantly increases the cell survival related protein (β-catenine) expression in a dose-dependent manner | significantly decrease the total tau protein expression in a concentration-dependent manner |
